# Source: patent publication US7341836B2, “Modified cyclic nucleotide gated ion channels” (The Regents of the University of Colorado, priority 2001, dated 2008)
# Entries after “also recorded” stand apart in the source; their conditions may differ.
# Columns and labels:
# PDE X = molecular target: T1, PDE X (Mus musculus, UniProt Q8CA95); conditions: cited from earlier work
# T1 construct: host or cells: heterologously expressed
# T1 sequence (Q8CA95 1-790): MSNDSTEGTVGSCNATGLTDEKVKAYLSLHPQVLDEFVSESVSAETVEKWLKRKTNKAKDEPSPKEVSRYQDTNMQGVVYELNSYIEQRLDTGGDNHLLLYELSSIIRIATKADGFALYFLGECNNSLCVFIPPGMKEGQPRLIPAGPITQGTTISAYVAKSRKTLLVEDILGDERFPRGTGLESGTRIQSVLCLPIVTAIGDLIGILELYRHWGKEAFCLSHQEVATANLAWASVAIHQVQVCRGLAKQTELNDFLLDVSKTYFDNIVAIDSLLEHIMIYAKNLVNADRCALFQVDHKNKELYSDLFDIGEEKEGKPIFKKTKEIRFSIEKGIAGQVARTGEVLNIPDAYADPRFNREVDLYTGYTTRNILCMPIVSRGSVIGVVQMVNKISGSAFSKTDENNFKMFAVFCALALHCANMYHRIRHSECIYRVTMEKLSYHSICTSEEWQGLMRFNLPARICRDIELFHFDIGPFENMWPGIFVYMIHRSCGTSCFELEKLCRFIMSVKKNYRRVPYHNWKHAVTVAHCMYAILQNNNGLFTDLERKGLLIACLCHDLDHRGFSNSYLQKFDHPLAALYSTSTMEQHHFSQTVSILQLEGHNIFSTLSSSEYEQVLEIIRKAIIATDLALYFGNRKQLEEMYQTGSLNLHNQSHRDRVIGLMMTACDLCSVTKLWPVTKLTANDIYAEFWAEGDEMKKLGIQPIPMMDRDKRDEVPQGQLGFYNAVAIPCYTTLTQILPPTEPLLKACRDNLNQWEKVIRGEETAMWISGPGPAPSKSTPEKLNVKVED
# PDE II = molecular target: T2, PDE II (Homo sapiens, UniProt O00408); conditions: read-out: IC50, PDE II; cited from earlier work
# T2 construct: host or cells: heterologously expressed human PDE; human heart
# T2 sequence (O00408 whole entry): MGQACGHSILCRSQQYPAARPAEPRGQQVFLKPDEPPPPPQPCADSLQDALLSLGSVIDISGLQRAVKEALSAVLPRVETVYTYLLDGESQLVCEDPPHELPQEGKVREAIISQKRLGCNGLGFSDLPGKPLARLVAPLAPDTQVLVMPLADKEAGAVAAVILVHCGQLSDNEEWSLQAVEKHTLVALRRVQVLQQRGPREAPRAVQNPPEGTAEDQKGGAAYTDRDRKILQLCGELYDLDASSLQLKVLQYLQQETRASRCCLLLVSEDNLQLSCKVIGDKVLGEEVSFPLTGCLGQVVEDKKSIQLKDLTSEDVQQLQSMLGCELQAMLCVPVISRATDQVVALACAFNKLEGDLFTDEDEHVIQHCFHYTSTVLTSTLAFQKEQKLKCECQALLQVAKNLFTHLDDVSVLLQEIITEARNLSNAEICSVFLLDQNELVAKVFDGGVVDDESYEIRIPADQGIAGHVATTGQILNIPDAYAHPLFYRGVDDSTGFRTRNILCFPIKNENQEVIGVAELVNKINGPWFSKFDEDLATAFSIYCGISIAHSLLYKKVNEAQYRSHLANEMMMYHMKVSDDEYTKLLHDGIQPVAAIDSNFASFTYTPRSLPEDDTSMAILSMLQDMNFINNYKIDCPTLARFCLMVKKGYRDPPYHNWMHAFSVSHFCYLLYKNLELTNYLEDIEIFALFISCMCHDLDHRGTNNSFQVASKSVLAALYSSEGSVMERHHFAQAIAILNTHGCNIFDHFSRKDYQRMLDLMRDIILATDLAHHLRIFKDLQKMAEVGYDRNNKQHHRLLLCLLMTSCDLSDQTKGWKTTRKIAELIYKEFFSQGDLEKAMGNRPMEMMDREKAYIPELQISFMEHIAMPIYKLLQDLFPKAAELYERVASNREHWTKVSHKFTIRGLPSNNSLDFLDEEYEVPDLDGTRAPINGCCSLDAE
# PDE IX = molecular target: T3, PDE IX (UniProt O70628); conditions: read-out: IC50, PDE IX; cited from earlier work
# T3 sequence (O70628 1-534): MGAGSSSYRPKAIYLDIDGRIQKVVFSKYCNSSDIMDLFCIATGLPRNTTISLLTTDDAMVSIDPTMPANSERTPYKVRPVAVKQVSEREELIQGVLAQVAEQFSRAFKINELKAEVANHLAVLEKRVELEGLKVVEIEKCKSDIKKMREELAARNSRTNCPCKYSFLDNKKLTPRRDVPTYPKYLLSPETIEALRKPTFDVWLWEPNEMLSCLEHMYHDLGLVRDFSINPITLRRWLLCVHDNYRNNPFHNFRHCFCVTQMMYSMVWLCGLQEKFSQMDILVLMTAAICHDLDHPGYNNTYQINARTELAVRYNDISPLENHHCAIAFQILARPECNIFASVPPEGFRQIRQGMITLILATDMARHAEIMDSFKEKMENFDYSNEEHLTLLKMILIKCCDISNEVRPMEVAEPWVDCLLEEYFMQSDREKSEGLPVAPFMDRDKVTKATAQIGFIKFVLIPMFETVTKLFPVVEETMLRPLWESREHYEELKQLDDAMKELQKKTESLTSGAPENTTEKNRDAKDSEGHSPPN
# [1] = system: PDE activity in HEK-293 cells; experiment: Effect and in vivo KI of PDE inhibitors on forskolin-induced Ca2+ influx through CNG channels; conditions: for effect on forskolin-induced Ca2+ influx: 1 μM forskolin, IBMX 10 or 100 μM, RO-20-1724 10 μM; for time to complete equilibration across the plasma membrane of HEK-293 cells: human, pH 7.4
# Procedure: Next, experiments were conducted to pharmacologically identify the PDE type(s) that regulates cAMP levels near CNG channels. The C460W/E583M channels were used to monitor forskolin-stimulated cAMP accumulation in the presence and absence of a series of PDE inhibitors. […] In these experiments, inhibitor concentrations were used at which specific PDE types should be inhibited.
# This required developing a quantitative framework to assess the relationship between cAMP synthesis, hydrolysis, and redistribution throughout the cell. Thus, the following formalism was adopted:
# [formula] where C is the steady-state rate of cAMP synthesis by AC, Vmax is the maximal rate of cAMP hydrolysis, Km is the Michaelis constant for PDE, and kf is the rate constant of cAMP flux out of the microdomain. In order to estimate KI for the PDE inhibitors two assumptions were made. First, it was assumed that at low levels of AC stimulation and PDE inhibition, the concentration of local cAMP is low and diffusion of cAMP out of the microdomain is negligible. Second, the assumption was made that cAMP levels reach steady-state shortly after AC stimulation (i.e., equal rates of synthesis and hydrolysis). With these assumptions, Eq. 4 can be simplified to:
# [formula] […] At low cAMP concentrations (<K1/2 for the channel), the cAMP concentration is proportional to the square root of the Ca^2+ influx rate (the Hill coefficient for channel activation is approximately 2). Thus, KI, can be estimated using a linear fit to the square root of the slopes of the fluorescence traces as a function of inhibitor concentration (See, FIG. 11).
# Increases in local cAMP concentration activate CNG channels and trigger Ca^2+ entry. Ca^2+ influx was monitored in cell populations using the fluorescent indicator fura-2.
# Additions were made by pipetting stock solutions into a stirred cuvette. The solutions were then assayed using an LS-50B spectrofluorimeter (Perkin Elmer). […]
# Fluorescence was measured at an excitation wavelength of 380 nm and an emission wavelength of 510 nm. […] The MATLAB software package (MathWorks) was used for curve fitting and simulations.
# The C460W/E583M channels were used to monitor forskolin-stimulated cAMP accumulation in the presence and absence of a series of PDE inhibitors. […] In these experiments, inhibitor concentrations were used at which specific PDE types should be inhibited.
# [formula] where C is the steady-state rate of cAMP synthesis by AC, Vmax is the maximal rate of cAMP hydrolysis, Km is the Michaelis constant for PDE, and kf is the rate constant of cAMP flux out of the microdomain. In order to estimate KI for the PDE inhibitors, two assumptions were made.
# [2] = C460W/E583M channels, 0.5 μM forskolin, n=4
# [3] = FIG. 11, the experiments shown, C460W/E583M channels, 0.5 μM forskolin
SMILES,IC50 (PDE X) [µM],IC50 (PDE II) [µM],IC50 (PDE IX) [µM],"Ki [1, 2] [µM]",effect on forskolin-induced Ca2+ influx ([1]; C460W/E583M channels),"Ki [1, 3] [µM]",time to complete equilibration across the plasma membrane of HEK-293 cells [1] [s],"Ki ([1]; Δ61-90/C460W/E583M channels, n=3) [µM]","slope of ΔF/F0 ([1]; 50 nM rolipram at 0 s, 0.5 μM forskolin at 180 s, C460W/E583M channels) [s⁻¹]"
CCCCCC[C@@H]([C@@H](C)O)n1cnc2c(N)ncnc21 (racemic) [EHNA],69,0.5 to 1,> 100,–,–,–,–,–,–
"CC(C)Cn1c(=O)n(C)c(=O)c2[nH]cnc21 [IBMX, 3-isobutyl-1-methylxanthine]",2.6,20 to 50,> 200,11 ± 2,significant forskolin-induced Ca^2+ influx was observed; also recorded: influenced the time course of forskolin-induced Ca^2+ influx,10,< 180,–,–
"CCCCOc1cc(CC2CNC(=O)N2)ccc1OC (centres unmarked) [RO-20-1724, 4-(3-butoxy-4-methoxybenzyl)-2-imidazolidinone]",–,> 100,–,0.13 ± 0.02,significant forskolin-induced Ca^2+ influx was observed; also recorded: influenced the time course of forskolin-induced Ca^2+ influx,0.14,< 180,0.15 ± 0.02,–
COc1ccc(C2CNC(=O)C2)cc1OC1CCCC1 (centres unmarked) [Rolipram],47,> 100,> 200,0.07 ± 0.02,significantly increased the forskolin-induced Ca^2+ influx,0.09,–,–,0.00062
